From patent US12581252B2, “Substituted pyrrolo[3,4-b]pyridines as PI3K-α inhibitors” (Relay Therapeutics, Inc., priority 2020, dated 2026)

Target: H1047R PIK3CA enzyme (Homo sapiens, UniProt P42336, H1047R)
Test: ADP-Glo Biochemical PIK3CA Kinase Assay

Chain of H1047R PIK3CA enzyme (P42336 whole entry H1047R): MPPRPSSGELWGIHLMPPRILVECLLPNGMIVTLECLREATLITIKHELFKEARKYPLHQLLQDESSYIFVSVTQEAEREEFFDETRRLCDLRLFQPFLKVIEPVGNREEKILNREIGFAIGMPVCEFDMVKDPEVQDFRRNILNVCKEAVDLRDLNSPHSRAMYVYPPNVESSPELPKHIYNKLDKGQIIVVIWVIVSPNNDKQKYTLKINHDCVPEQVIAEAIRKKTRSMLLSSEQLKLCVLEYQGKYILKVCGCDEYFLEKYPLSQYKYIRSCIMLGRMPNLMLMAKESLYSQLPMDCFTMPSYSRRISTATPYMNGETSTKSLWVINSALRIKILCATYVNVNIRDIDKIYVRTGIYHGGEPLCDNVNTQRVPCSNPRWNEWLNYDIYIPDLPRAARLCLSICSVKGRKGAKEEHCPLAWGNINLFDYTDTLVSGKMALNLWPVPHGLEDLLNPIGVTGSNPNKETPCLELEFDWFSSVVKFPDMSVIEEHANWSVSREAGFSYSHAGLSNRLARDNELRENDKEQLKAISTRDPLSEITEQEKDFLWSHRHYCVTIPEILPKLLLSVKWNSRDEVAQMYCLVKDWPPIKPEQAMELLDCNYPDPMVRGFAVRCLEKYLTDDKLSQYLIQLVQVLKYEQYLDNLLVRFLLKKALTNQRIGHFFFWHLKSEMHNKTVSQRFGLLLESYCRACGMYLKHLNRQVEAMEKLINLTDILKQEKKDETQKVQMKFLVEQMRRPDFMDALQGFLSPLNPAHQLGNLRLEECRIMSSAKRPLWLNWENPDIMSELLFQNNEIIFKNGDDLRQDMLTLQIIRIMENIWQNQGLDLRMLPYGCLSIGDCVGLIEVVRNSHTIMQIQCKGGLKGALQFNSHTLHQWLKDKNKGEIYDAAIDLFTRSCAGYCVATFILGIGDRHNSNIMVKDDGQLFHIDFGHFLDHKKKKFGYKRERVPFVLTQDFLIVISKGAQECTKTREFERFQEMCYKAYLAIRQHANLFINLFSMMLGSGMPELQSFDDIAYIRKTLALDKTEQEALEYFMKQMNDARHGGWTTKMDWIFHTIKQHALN
Chain of H1047R PIK3CA enzyme (P27986 whole entry partner): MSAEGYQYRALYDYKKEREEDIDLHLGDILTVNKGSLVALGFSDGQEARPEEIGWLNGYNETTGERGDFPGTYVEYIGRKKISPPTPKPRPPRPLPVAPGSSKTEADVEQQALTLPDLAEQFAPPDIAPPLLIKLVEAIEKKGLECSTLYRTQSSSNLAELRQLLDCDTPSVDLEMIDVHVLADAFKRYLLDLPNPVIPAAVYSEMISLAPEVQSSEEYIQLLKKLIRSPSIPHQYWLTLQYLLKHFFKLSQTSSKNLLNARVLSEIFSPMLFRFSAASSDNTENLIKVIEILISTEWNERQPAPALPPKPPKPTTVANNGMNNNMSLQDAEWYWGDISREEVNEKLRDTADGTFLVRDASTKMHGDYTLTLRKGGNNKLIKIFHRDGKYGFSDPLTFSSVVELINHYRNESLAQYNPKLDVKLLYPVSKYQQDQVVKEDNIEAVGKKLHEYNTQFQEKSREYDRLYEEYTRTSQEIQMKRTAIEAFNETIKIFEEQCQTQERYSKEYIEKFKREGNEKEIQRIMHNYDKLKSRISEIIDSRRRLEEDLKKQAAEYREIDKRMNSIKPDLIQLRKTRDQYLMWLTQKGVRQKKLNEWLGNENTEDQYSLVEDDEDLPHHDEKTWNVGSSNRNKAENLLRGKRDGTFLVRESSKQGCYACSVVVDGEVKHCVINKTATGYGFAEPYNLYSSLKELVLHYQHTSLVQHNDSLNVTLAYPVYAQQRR

Row | IC50 | Compound
1 | 10 to 100 µM | Cc1ccccc1C1NC(=O)c2cccc(NC(=O)C(F)(F)F)c21 (stereo not shown) [Compound I-16]
2 | 1 to 10 µM | Cc1cc2ncnn2cc1-c1cc(NC(=O)c2cc(F)cc(C(F)(F)F)c2)c2c(c1)C(=O)N[C@@H]2c1cc(F)ccc1Cl [Compound I-1873]
3 | 10 to 100 µM | N#C[C@H]1CCN(C(=O)Nc2cc(-c3ccc4ncnn4c3)cc3c2C(c2cc(F)ccc2Cl)NC3=O)C1 (mixture of isomers) [Compound I-2415]
4 | 1 to 10 µM | Cc1ccccc1C1NC(=O)c2cccc(NC3(c4cc(F)cc(C(F)(F)F)c4)COC3)c21 (stereo not shown) [Compound I-492]
5 | ≤ 0.1 µM | O=C(Nc1cc(-c2cn3ncnc3cc2F)cc2c1[C@H](c1cc(F)ccc1Cl)NC2=O)c1cc(F)cc(C(F)(F)F)c1 (stereo in doubt) [Compound I-1702]
6 | 10 to 100 µM | O=C1NC(c2cc(F)ccc2Cl)c2c1cc(-c1ccc3ncnn3c1)cc2N1C(=O)CCC1=O (stereo not shown) [Compound I-1990]
7 | 10 to 100 µM | O=C1NC(c2cc(F)ccc2Cl)c2c(Nc3cc(CO)c(C(F)(F)F)cn3)cccc21 (stereo not shown) [Compound I-1377]
8 | 10 to 100 µM | O=C(Nc1cccc2c1[C@H](C1CCC(F)(F)CC1)NC2=O)c1cc(F)cc(C(F)(F)F)c1 [Compound I-2073]
9 | 10 to 100 µM | O=C(Nc1cccc2c1C(C1NC3CCC1C3)NC2=O)c1cc(F)cc(C(F)(F)F)c1 (stereo not shown) [Compound I-2076]
10 | 10 to 100 µM | COc1cc(C(=O)Nc2cc(N)cc3c2C(c2cc(F)ccc2C(F)F)NC3=O)cc(F)c1N (stereo not shown) [Compound I-474]
11 | ≤ 0.1 µM | N#CN1CC(Oc2cc(NC(=O)c3cc(F)cc(C(F)(F)F)c3)c3c(c2)C(=O)NC3c2cc(F)ccc2Cl)C1 (stereo not shown) [Compound I-1205]
12 | 1 to 10 µM | O=C(Nc1cc(Br)cc2c1C(c1cc(F)ccc1Cl)NC2=O)c1cc(F)ccc1F (stereo not shown) [Compound I-793]
13 | ≤ 0.1 µM | O=C1CC(c2cc(NC(=O)c3cc(F)cc(C(F)(F)F)c3)c3c(c2)C(=O)NC3c2cc(F)ccc2Cl)CN1 (stereo not shown) [Compound I-1360]
14 | 0.1 to 0.5 µM | O=C1NC(c2cc(F)ccc2Cl)c2c(Nc3nc4ccccc4s3)cc(-c3ccc4ncnn4c3)cc21 (stereo not shown) [Compound I-1659]
15 | 1 to 10 µM | O=C1N[C@H](c2cc(F)ccc2Cl)c2c(NC(=O)N3C[C@](O)(C(F)(F)F)c4cc(F)ccc43)ccnc21 (single isomer, unassigned) [Compound I-2699]
16 | 10 to 100 µM | O=C1NC(c2cc(F)ccc2Cl)c2c(NC(=O)[C@H]3C[C@H](O)c4ccccc43)cc(Br)cc21 (mixture of isomers) [Compound I-1943]
17 | 10 to 100 µM | COc1cc(C)c(C(=O)Nc2cc(Br)cc3c2C(c2cc(F)ccc2Cl)NC3=O)cn1 (stereo not shown) [Compound I-850]
18 | 10 to 100 µM | O=C1NC(c2cc(F)ccc2Cl)c2c1cccc2-n1cc2ccccc2cc1=O (stereo not shown) [Compound I-1580]
19 | ≤ 0.1 µM | CC1(Nc2cc(NC(=O)c3cc(F)cc(C(F)(F)F)c3)c3c(c2)C(=O)N[C@H]3c2cc(F)ccc2Cl)COC1 [Compound I-813]
20 | 10 to 100 µM | CC(=O)N1CCCC(C2NC(=O)c3cccc(NC(=O)c4cc(F)cc(C(F)(F)F)c4)c32)C1 (racemic) [Compound I-1771]
21 | ≤ 0.1 µM | O=C(Nc1cc(-c2cn3ccnc3cn2)cc2c1[C@H](c1cc(F)ccc1Cl)NC2=O)c1cc(F)cc(C(F)(F)F)c1 [Compound I-1330]
22 | ≤ 0.1 µM | O=C(Nc1cc(O[C@@H]2COC[C@H]2O)cc2c1C(c1cc(F)ccc1Cl)NC2=O)c1cc(F)cc(C(F)(F)F)c1 (mixture of isomers) [Compound I-1192]

Row | IC50 | Compound
23 | 1 to 10 µM | O=C(Nc1cc(Br)cc2c1C(c1cc(F)ccc1Cl)NC2=O)c1cccc(SC(F)(F)F)c1 (stereo not shown) [Compound I-1314]
24 | 1 to 10 µM | Cc1ccccc1C1NC(=O)c2cccc(NC(=O)c3noc4ccc(F)cc34)c21 (stereo not shown) [Compound I-21]
25 | 1 to 10 µM | O=C1NC(c2cc(F)ccc2Cl)c2c(NC(=O)N3CCNc4ccccc43)cc(Br)cc21 (stereo not shown) [Compound I-716]
26 | 1 to 10 µM | NCCc1cc(NC(=O)N2C[C@@](O)(C(F)(F)F)c3cc(F)ccc32)c2c(c1)C(=O)N[C@@H]2c1cc(F)ccc1Cl (single isomer, unassigned) [Compound I-2583]
27 | ≤ 0.1 µM | O=C(Nc1cc(-c2ccc3nnc(C(F)F)n3c2)cc2c1[C@H](c1cc(F)ccc1Cl)NC2=O)c1cc(F)cc(C(F)(F)F)c1 [Compound I-1925]
28 | ≤ 0.1 µM | O=C(Nc1cc(CS(=O)(=O)c2cccnc2)cc2c1C(c1cc(F)ccc1Cl)NC2=O)c1cc(F)cc(C(F)(F)F)c1 (stereo not shown) [Compound I-1536]
29 | 1 to 10 µM | O=C(Nc1cc(Br)cc2c1C(c1c(F)cccc1Cl)NC2=O)c1cc(F)cc(C(F)(F)F)c1 (stereo not shown) [Compound I-681]
30 | ≤ 0.1 µM | Cc1ccccc1C1NC(=O)c2c(Br)ccc(NC(=O)c3nsc4ccccc34)c21 (stereo not shown) [Compound I-203]
31 | ≤ 0.1 µM | O=C1NC(c2cc(F)ccc2C(F)F)c2c(NC(=O)c3nsc4ccccc34)cccc21 (stereo not shown) [Compound I-137]
32 | 0.5 to 1 µM | Cc1ccccc1C1NC(=O)c2cccc(NC(=O)c3cc(F)cc(Br)c3)c21 (stereo not shown) [Compound I-391]
33 | 10 to 100 µM | O=C1N[C@H](c2cc(F)ccc2Cl)c2c(NC(=O)N3C[C@H](O)c4cc(F)ccc43)cccc21 (single isomer, unassigned) [Compound I-2128]
34 | 1 to 10 µM | O=C1N[C@H](c2cc(F)ccc2Cl)c2c(Nc3nccc4c(C(F)(F)F)cc(F)cc34)cc(Br)cc21 [Compound I-1110]
35 | 10 to 100 µM | O=C(Nc1cccc2c1C(CC1CC=CC1)NC2=O)c1cc(F)cc(C(F)(F)F)c1 (stereo not shown) [Compound I-2322]
36 | ≤ 0.1 µM | O=C(Nc1cc(-c2ccnn2C[C@H]2CCOC2)cc2c1C(c1cc(F)ccc1Cl)NC2=O)c1cc(F)cc(C(F)(F)F)c1 (single isomer, unassigned) [Compound I-1406]
37 | 10 to 100 µM | O=C1NC(c2cc(F)ccc2Cl)c2c(NC(=O)N3CCSC3)cccc21 (stereo not shown) [Compound I-2428]
38 | ≤ 0.1 µM | CS(=O)(=O)Cc1cc(NC(=O)c2cc(F)cc(C(F)(F)F)c2)c2c(c1)C(=O)N[C@H]2c1cc(F)ccc1Cl [Compound I-618]
39 | 10 to 100 µM | O=C1NC(c2cc(F)ccc2Cl)c2c1cccc2-n1ccc2ccccc2c1=O (stereo not shown) [Compound I-1590]
40 | 0.1 to 0.5 µM | Cc1ccccc1-n1[nH]c(=O)c2cccc(NC(=O)c3coc4c(F)cc(Cl)cc34)c21 [Compound I-252]
41 | ≤ 0.1 µM | N#Cc1cnn(Cc2cc(NC(=O)c3cc(F)cc(C(F)(F)F)c3)c3c(c2)C(=O)NC3c2cc(F)ccc2Cl)c1 (stereo not shown) [Compound I-1588]
42 | 10 to 100 µM | O=C1N[C@H](c2cc(F)ccc2Cl)c2c(NC(=O)[C@H]3CCC[C@H](OC(F)(F)F)C3)cccc21 (single isomer, unassigned) [Compound I-2211]
43 | 1 to 10 µM | O=C1N[C@@H](c2cc(F)ccc2Cl)c2c(NC(=O)N3C[C@H](O)c4cc(F)ccc43)cc(-n3nccn3)cc21 (single isomer, unassigned) [Compound I-2343]
44 | ≤ 0.1 µM | O=C(Nc1cc(Cl)nc2c1[C@@H](c1cc(F)ccc1Cl)NC2=O)c1cc(F)cc(C(F)(F)F)c1 [Compound I-617]

Row | IC50 | Compound
45 | 10 to 100 µM | O=C(Nc1cc(Br)cc2c1C(c1cc(F)ccc1Cl)NC2=O)c1ccccc1C(F)F (stereo not shown) [Compound I-518]
46 | 1 to 10 µM | O=C1N[C@@H](c2cc(F)ccc2Cl)c2c(NC(=O)N3C[C@](O)(C(F)(F)F)c4cc(F)ccc43)cc(-n3ncccc3=O)cc21 (single isomer, unassigned) [Compound I-2533]
47 | 1 to 10 µM | C[C@](O)(CC#N)c1cc(NC(=O)c2cc(F)cc(C(F)(F)F)c2)c2c(c1)C(=O)N[C@@H]2c1cc(F)ccc1Cl (single isomer, unassigned) [Compound I-1396]
48 | ≤ 0.1 µM | CC(C)(O)c1cc(NC(=O)c2cc(F)cc(C(F)(F)F)c2)c2c(c1)C(=O)NC2c1cc(F)ccc1C(F)F (stereo not shown) [Compound I-239]
49 | 1 to 10 µM | N#Cc1cnc2cc(F)c(-c3cc(NC(=O)c4cc(F)cc(C(F)(F)F)c4)c4c(c3)C(=O)N[C@@H]4c3cc(F)ccc3Cl)cn12 [Compound I-1883]
50 | 0.1 to 0.5 µM | O=C1NC(c2ccccc2Cl)c2c(NC(=O)c3nsc4ccccc34)ccnc21 (stereo not shown) [Compound I-172]
51 | 10 to 100 µM | N[C@H]1CCC[C@H](C(=O)Nc2cc(-c3ccc4ncnn4c3)cc3c2C(c2cc(F)ccc2Cl)NC3=O)C1 (mixture of isomers) [Compound I-1845]
52 | 0.1 to 0.5 µM | O=C(Nc1cc(-c2ccc3ncnn3c2)cc2c1[C@H](c1cc(F)ccc1Cl)NC2=O)c1cc(F)cc2c1NC(=O)C2(F)F [Compound I-1584]
53 | ≤ 0.1 µM | O=C(Nc1cc(NC2CCC(O)C2)cc2c1C(c1cc(F)ccc1Cl)NC2=O)c1cc(F)cc(C(F)(F)F)c1 (stereo not shown) [Compound I-359]
54 | 10 to 100 µM | O=C1N[C@@H](c2cc(F)ccc2Cl)c2c(NC(=O)N3C[C@](O)(C(F)(F)F)c4cc(F)ccc43)cc(N3CCCC3=O)cc21 (single isomer, unassigned) [Compound I-2668]
55 | ≤ 0.1 µM | O=C(Nc1cc(NCC(F)F)nc2c1C(c1cc(F)ccc1Cl)NC2=O)c1cc(F)cc(C(F)(F)F)c1 (stereo not shown) [Compound I-338]
56 | 0.1 to 0.5 µM | Cc1ccccc1C1NC(=O)c2c(C#N)ccc(NC(=O)c3cc(F)cc(C(F)(F)F)c3)c21 (stereo not shown) [Compound I-313]
57 | ≤ 0.1 µM | O=C(Nc1cc(C#Cc2ccccn2)cc2c1C(c1cc(F)ccc1Cl)NC2=O)c1cc(F)cc(C(F)(F)F)c1 (stereo not shown) [Compound I-1185]
58 | 1 to 10 µM | CC[C@]1(O)CN(C(=O)Nc2cccc3c2[C@@H](c2cc(F)ccc2Cl)NC3=O)c2ccc(F)cc21 (single isomer, unassigned) [Compound I-2460]
59 | 10 to 100 µM | O=C(Nc1cc(Br)cc2c1[C@H](c1cc(F)ccc1Cl)NC2=O)N[C@]1(CC(F)(F)F)CCCOC1 (racemic) [Compound I-1949]
60 | ≤ 0.1 µM | O=C(Nc1cc(C2COC2)cc2c1C(c1cc(F)ccc1Cl)NC2=O)c1cc(F)cc(C(F)(F)F)c1 (stereo not shown) [Compound I-420]
61 | ≤ 0.1 µM | NS(=O)(=O)Cc1cc(NC(=O)c2cc(F)cc(C(F)(F)F)c2)c2c(c1)C(=O)NC2c1cc(F)ccc1Cl (stereo not shown) [Compound I-1367]
62 | 10 to 100 µM | Nc1cc(NC(=O)N2C[C@H](O)c3cc(F)ccc32)c2c(c1)C(=O)N[C@H]2c1cc(F)ccc1Cl (single isomer, unassigned) [Compound I-2413]
63 | 10 to 100 µM | COc1ccc2c(c1)CCN2C(=O)Nc1cccc2c1C(c1cc(F)ccc1Cl)NC2=O (stereo not shown) [Compound I-2437]
64 | 0.5 to 1 µM | O=C(Nc1cc(-c2ccc3ncc(C(F)F)n3c2)cc2c1[C@@H](c1cc(F)ccc1Cl)NC2=O)c1cc(F)cc(C(F)(F)F)c1 [Compound I-1936]
